The record followed here is patent US11591341B2 (ALIGOS THERAPEUTICS, INC., priority 2019, dated 2023).

In this assay the test system is HBV. Put plainly: HBV-DNA Antiviral Assay Using HepG2.117 Cells (intracellular HBV DNA by qPCR). The note with it: Hepatitis B virus, HepG2.117. Type of assay: cell-based, hepatitis B virus (genotype D). A digest of the protocol: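 Endpoint: qPCR copy number of intracellular HBV DNA after 3-day compound exposure, with inhibition set relative to the 2% DMSO control. The cells were doxycycline-free HepG2.117 carrying a Tet-off genotype D genome, dosed at nine 4-fold dilutions. A duplicate plate gave ATP-based viability (CC50).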

Each structure is given as a SMILES string.

For the molecule `CC(C)Oc1ccc(-n2c(C(=O)NC(C)c3ccccc3)c3n(c2=O)CCN(C(=O)c2ccc(Br)c(Cl)c2)C3)cc1` (racemic) [Example 118, 7-(4-bromo-3-chloro-benzoyl)-2-(4-isopropoxyphenyl)-3-oxo-N-[rac-(1R)-1-phenylethyl]-6,8-dihydro-5H-imidazo[1,5-a]pyrazine-1-carboxamide], the EC50 was 0.1 to 0.5 µM.

In the case of `O=C(NCc1ccc(OC2COC2)cc1F)c1c2n(c(=O)n1-c1ccc(OCC(F)(F)F)cc1)CCN(C(=O)c1ccc(Br)c(Cl)c1)C2` [Example 329, 7-(4-bromo-3-chloro-benzoyl)-N-[[2-fluoro-4-(oxetan-3-yloxy)phenyl]methyl]-3-oxo-2-[4-(2,2,2-trifluoroethoxy)phenyl]-6,8-dihydro-5H-imidazo[1,5-a]pyrazine-1-carboxamide], the EC50 lay in the range of 0.1 to 0.5 µM.

The molecule `COc1ccc(-n2c(C(=O)NCc3ccc4ncccc4c3)c3n(c2=O)CCN(C(=O)c2ccc(Cl)c(Cl)c2)C3)cc1` [Example 92, 7-(3,4-dichlorobenzoyl)-2-(4-methoxyphenyl)-3-oxo-N-(6-quinolylmethyl)-6,8-dihydro-5H-imidazo[1,5-a]pyrazine-1-carboxamide] came in with an EC50 of 0.5 to 5 µM.

In the case of `COc1ccc(-n2c(C(=O)NCc3ccc(F)c(OC)c3)c3n(c2=O)CCN(C(=O)c2ccc(Cl)c(Cl)c2)C3)cc1` [Example 103, 7-(3,4-dichlorobenzoyl)-N-[(4-fluoro-3-methoxy-phenyl)methyl]-2-(4-methoxyphenyl)-3-oxo-6,8-dihydro-5H-imidazo[1,5-a]pyrazine-1-carboxamide], the EC50 fell in the range of 0.5 to 5 µM.

`CC(C)Oc1ccc(-n2c(C(=O)NCc3ccc4[nH]cnc4c3)c3n(c2=O)CCN(C(=O)c2ccc(Br)c(Cl)c2)C3)cc1` [Example 219, N-(1H-benzimidazol-5-ylmethyl)-7-(4-bromo-3-chloro-benzoyl)-2-(4-isopropoxyphenyl)-3-oxo-6,8-dihdyro-5H-imidazo[1,5-a]pyrazine-1-carboxamide] gave a concentration giving a half-maximal response (EC50) of 0.5 to 5 µM.

Take `C[C@H](NC(=O)c1c2n(c(=O)n1-c1ccc(OC3CC3)cc1)CCN(C(=O)c1ccc(Br)c(Cl)c1)C2)c1ccc(OCC(N)=O)cc1-n1cccn1` (racemic) [Example 378, 7-(4-bromo-3-chloro-benzoyl)-2-[4-(cyclopropoxy)phenyl]-3-oxo-N-[rac-(1S)-1-[4-(2-amino-2-oxo-ethoxy)-2-pyrazol-1-yl-phenyl]ethyl]-6,8-dihydro-5H-imidazo[1,5-a]pyrazine-1-carboxamide]: the EC50 was over 5 µM.

Molecule `COc1ccc(-n2c(C(=O)NCc3ccccc3-n3cccn3)c3n(c2=O)CCN(C(=O)c2ccc(Br)c(Cl)c2)C3)cc1` [Example 167, 7-(4-bromo-3-chloro-benzoyl)-2-(4-methoxyphenyl)-3-oxo-N-[(2-pyrazol-1-ylphenyl)methyl]-6,8-dihydro-5H-imidazo[1,5-a]pyrazine-1-carboxamide] came in with a concentration giving a half-maximal response (EC50) of under 0.1 µM.

In turn, `C[C@@H](NC(=O)c1c2n(c(=O)n1-c1ccc(OC3CC3)cc1)C[C@H](C)N(C(=O)c1ccc(Br)c(Cl)c1)C2)c1ccccc1` (mixture of isomers) [Example 332, (6SR)-7-(4-bromo-3-chloro-benzoyl)-2-[4-(cyclopropoxy)phenyl]-6-methyl-3-oxo-N-[(1R)-1-phenylethyl]-6,8-dihydro-5H-imidazo[1,5-a]pyrazine-1-carboxamide] came in with an EC50 of 0.1 to 0.5 µM.

Molecule `C[C@H](Oc1ccc(-n2c(C(=O)NCc3ccccc3)c3n(c2=O)CCN(C(=O)c2ccc(Br)c(Cl)c2)C3)cc1)C(F)(F)F` (stereo in doubt) [Example 283, N-benzyl-7-(4-bromo-3-chloro-benozyl)-3-oxo-2-[4-[rac-(1S)-2,2,2-trifluoro-1-methyl-ethoxy]phenyl]-6,8-dihydro-5H-imidazo[1,5-a]pyrazine-1-carboxamide] registered an EC50 of 0.5 to 5 µM.

In turn, `O=C(c1ccc(Br)c(Cl)c1)N1CCn2c(c3n(c2=O)C[C@@H](CO)CN(Cc2ccccc2)C3=O)C1` (stereo in doubt) [Example 147, rac-(11S)-13-benzyl-4-(4-bromo-3-chloro-benzoyl)-11-(hydroxymethyl)-4,7,9,13-tetrazatricyclo[7.5.0.0^2,7]tetradec-1-ene-8,14-dione] displayed a half-maximal effective concentration (EC50) of 0.1 to 0.5 µM.

Take `O=C(NCc1ccccc1-n1cc(F)cn1)c1c2n(c(=O)n1-c1ccc(OC3CC3)cc1)CCN(C(=O)c1ccc(Br)c(Cl)c1)C2` [Example 421, 7-(4-bromo-3-chloro-benzoyl)-2-[4-(cyclopropoxy)phenyl]-N-[[2-(4-fluoropyrazol-1-yl)phenyl]methyl]-3-oxo-6,8-dihydro-5H-imidazo[1,5-a]pyrazine-1-carboxamide]: the EC50 is under 0.1 µM.

Take `CC(C)Oc1ccc(-n2c(C(=O)N[C@@H](C)c3ccccc3)c3n(c2=O)CCN(C(=O)c2ccc(Cl)c(Cl)c2)C3)cc1` (stereo in doubt) [Example 129, 7-(3,4-dichlorobenzoyl)-2-(4-isopropoxyphenyl)-3-oxo-N-[rac-(1S)-1-phenylethyl]-6,8-dihydro-5H-imidazo[1,5-a]pyrazine-1-carboxamide]: the EC50 was 0.5 to 5 µM.

In the case of `C[C@@H](NC(=O)c1c2n(c(=O)n1-c1ccc(OCC(F)(F)F)cc1)CCN(C(=O)c1ccc(Br)c(Cl)c1)C2)c1ccc(OC(C)(C)C(N)=O)cc1F` (stereo in doubt) [Example 337, 7-(4-bromo-3-chloro-benzoyl)-3-oxo-N-[rac-(1R)-1-[4-(2-amino-1,1-dimethyl-2-oxo-ethoxy)-2-fluoro-phenyl]ethyl]-2-[4-(2,2,2-trifluoroethoxy)phenyl]-6,8-dihydro-5H-imidazo[1,5-a]pyrazine-1-carboxamide], the EC50 is 0.1 to 0.5 µM.

`COc1ccc(-n2c(C(=O)NCc3ccnnc3)c3n(c2=O)CCN(C(=O)c2ccc(Cl)c(Cl)c2)C3)cc1` [Example 53, 7-(3,4-dichlorobenzoyl)-2-(4-methoxyphenyl)-3-oxo-N-(pyridazin-4-ylmethyl)-6,8-dihydro-5H-imidazo[1,5-a]pyrazine-1-carboxamide] gave an EC50 of over 5 µM.

Molecule `COc1ccc(-n2c(C(=O)N[C@H](C(N)=O)c3ccccc3)c3n(c2=O)CCN(C(=O)c2ccc(Br)c(Cl)c2)C3)cc1` (racemic) [Example 207, 7-(4-bromo-3-chloro-benzoyl)-2-(4-methoxyphenyl)-3-oxo-N-[rac-(1S)-2-amino-2-oxo-1-phenyl-ethyl]-6,8-dihydro-5H-imidazo[1,5-a]pyrazine-1-carboxamide] gave an EC50 of over 5 µM.

`O=C(NCc1ccccc1)c1c2n(c(=O)n1-c1ccc(OC3CC(F)(F)C3)cc1)CCN(C(=O)c1ccc(Br)c(Cl)c1)C2` [Example 350, N-benzyl-7-(4-bromo-3-chloro-benzoyl)-2-[4-(3,3-difluorocyclobutoxy)phenyl]-3-oxo-6,8-dihydro-5H-imidazo[1,5-a]pyrazine-1-carboxamide] came in with an EC50 of 0.5 to 5 µM.

The molecule `COc1ccc(-n2c(C(=O)NC(C)c3ccc(F)cc3)c3n(c2=O)CCN(C(=O)c2ccc(Br)c(Cl)c2)C3)cc1` (centres unmarked) [Example 141, 7-(4-bromo-3-chloro-benzoyl)-N-[1-(4-fluorophenyl)ethyl]-2-(4-methoxyphenyl)-3-oxo-6,8-dihydro-5H-imidazo[1,5-a]pyrazine-1-carboxamide] gave an EC50 of 0.1 to 0.5 µM.

`O=C(NCc1ccccc1-c1ccccn1)c1c2n(c(=O)n1-c1ccc(OCC(F)(F)F)cc1)CCN(C(=O)c1ccc(Br)c(Cl)c1)C2` [Example 370, 7-(4-bromo-3-chloro-benzoyl)-3-oxo-N-[[2-(2-pyridyl)phenyl]methyl]-2-[4-(2,2,2-trifluoroethoxy)phenyl]-6,8-dihydro-5H-imidazo[1,5-a]pyrazine-1-carboxamide] yielded an EC50 of under 0.1 µM.

Take `COc1ccc(-n2c(C(=O)NCc3ccc(OC(F)F)cc3)c3n(c2=O)CCN(C(=O)c2ccc(Br)c(Cl)c2)C3)cc1` [Example 148, 7-(4-bromo-3-chloro-benzoyl)-N-[[4-(difluoromethoxy)phenyl]methyl]-2-(4-methoxyphenyl)-3-oxo-6,8-dihydro-5H-imidazo[1,5-a]pyrazine-1-carboxamide]: the EC50 fell in the range of 0.1 to 0.5 µM.

In the case of `COc1ccc(-n2c(C(=O)N[C@@H]3CCc4ccccc43)c3n(c2=O)CCN(C(=O)c2ccc(Br)c(Cl)c2)C3)cc1` (racemic) [Example 75, 7-(4-bromo-3-chloro-benzoyl)-2-(4-methoxyphenyl)-3-oxo-N-[rac-(1R)-indan-1-yl]-6,8-dihydro-5H-imidazo[1,5-a]pyrazine-1-carboxamide], the EC50 fell in the range of 0.5 to 5 µM.

In the case of `C[C@@H](NC(=O)c1c2n(c(=O)n1-c1ccc(OC3CC3)cc1)C[C@H](C)N(C(=O)c1ccc(Br)c(Cl)c1)C2)c1ccccc1F` (mixture of isomers) [Example 322, (6SR)-7-(4-bromo-3-chloro-benzoyl)-2-[4-(cyclopropoxy)phenyl]-N-[(1R)-1-(2-fluorophenyl)ethyl]-6-methyl-3-oxo-6,8-dihydro-5H-imidazo[1,5-a]pyrazine-1-carboxamide], the EC50 is 0.1 to 0.5 µM.

The molecule `C[C@@H](Oc1ccc([C@@H](C)NC(=O)c2c3n(c(=O)n2-c2ccc(OC4CC4)cc2)CCN(C(=O)c2ccc(Br)c(Cl)c2)C3)c(F)c1)C(N)=O` (stereo in doubt) [Example 355, 7-(4-bromo-3-chloro-benzoyl)-2-[4-(cyclopropoxy)phenyl]-3-oxo-N-[rac-(1R)-1-[2-fluoro-4-[rac-(1R)-2-amino-1-methyl-2-oxo-ethoxy]phenyl]ethyl]-6,8-dihydro-5H-imidazo[1,5-a]pyrazine-1-carboxamide] displayed an EC50 of 0.5 to 5 µM.

In turn, `C[C@@H]1CN(Cc2ccccc2)C(=O)c2c3n(c(=O)n2C1)CCN(C(=O)c1ccc(Br)c(Cl)c1)C3` (stereo in doubt) [Example 97, rac-(11R)-13-benzyl-4-(4-bromo-3-chloro-benzoyl)-11-methyl-4,7,9,13-tetrazatricyclo[7.5.0.0^2,7]tetradec-1-ene-8.14-dione] registered an EC50 of 0.5 to 5 µM.
